In series [1] the test system is KB3 cervical carcinoma cell line. As to conditions: preliminary evidence.
The subject of series [2] is paclitaxel-resistant cells. As to conditions: frequently observed; cited from earlier work.
The subject of series [3] is paclitaxel dependent cell line Tax-18. Put plainly: Cross-resistance growth assay in 24 well dishes, Tax-18. As to conditions: for Rescue of growth of drug-dependent Tax-18: no growth without drug. The protocol:
Wild-type CHO cells (WT), Taxol resistant mutant Tax 5-6 (Tax^R), and Taxol dependent mutant Tax 18 (Tax^D) were seeded into replicate wells of 24 well dishes at a density of approximately 100 cells per well in increasing concentrations of Taxol or Taxotere as indicated (in μg/ml). The cells were grown 7 days and then stained with methylene blue.

In series [4] the test system is Paclitaxel Resistant CHO Cells.
Experimental: Metabolic labeling was for 1 h in methionine-free MEM (ICN Biomedicals Inc., Costa Mesa, Calif.) containing 30 μCi/ml Tran ^35S-label (1,000 Ci/mmol; ICN Biomedicals).
Series [5] deals with CHO cells transfected with HAβ1, HAβ1G38E, HAβ1L217R or HAβ1L228F cDNAs. As to the kind of experiment: Direct selection of paclitaxel resistant transfected cells. The class given is cell-based, Chinese hamster. The protocol: (§1) The ability of β-tubulin mutations to confer paclitaxel resistance was evaluated in 2 ways. In the first, stably transfected cell lines expressing mutant HAβ1-tubulin were seeded at approximately 100 cells/well in replicate wells of a 24-well dish containing increasing concentrations of paclitaxel. The assay was carried out in duplicate with only one set containing 1 μg/ml tetracycline. After 6–7 d, the medium was removed and the resistant colonies were stained with a solution of 0.1% methylene blue as previously described (Cabral, F., Sobel, M. E., and Gottesman, M. M. (1980) Cell 20, 29–36). In a second assay, aliquots (˜7×10^4 cells for selective, and ˜100 cells for non-selective conditions) from total transfected cell populations were seeded into duplicate 6-well dishes containing normal medium (non-selective), 2 mg/ml G418, or 0.2 μg/ml paclitaxel, each with or without 1 μg/ml tetracycline. After the appearance of visible colonies (6–7 d), one duplicate dish was stained with methylene blue and colonies were counted. Cells in the second dish were trypsinized and replated onto glass coverslips for immunofluorescence observation.

The test system of series [6] is HAβ1L215H transfected CHO cells. Put plainly: Immunofluorescence for HA tag in drug-selected HAβ1L215H transfected populations. The class given is cell-based, Chinese hamster. As to the method:
FIG. 8 depicts paclitaxel selects for transfected cells that express mutant HAβ1-tubulin. Cells transfected with HAβ1L215H cDNA were selected for resistance to G418 (A, B) or paclitaxel (C, D) either in the presence (A, C) or absence (B, D) of 1 μg/ml tetracycline. The total resistant cell population was then trypsinized and replated for 24 h in medium without tetracycline or paclitaxel before processing for immunofluorescence with an antibody specific for the HA tag. Arrows in B and C indicate cells that were positive for HAβ1L215H-tubulin expression. Approximately 50% of the cells in panel A, and 100% of the cells in panel D were positive for expression. Bar=10 μm.
Cells were grown on glass coverslips to approximately 70% of confluence and fixed in methanol (−20° C.) for at least 10 min as previously described (Gonzalez-Garay, M. L., and Cabral, F.). The primary antibody used for most experiments was mouse monoclonal 12CA5 (Boehringer Mannheim Corp., Indianapolis, Ind.), specific for the HA tag. This was followed by fluorescein conjugated goat antimouse IgG (Cappel). […]
The ability of β-tubulin mutations to confer paclitaxel resistance was evaluated in 2 ways. […] After the appearance of visible colonies (6–7 d), one duplicate dish was stained with methylene blue and colonies were counted. […]

The subject of series [7] is paclitaxel resistant human ovarian cells. As to conditions: gradually selected to higher levels of resistance; cited from earlier work.
For series [8], the system named is CHO cells transfected with HAβ1, HAβ1L215H, HAβ1L217R or HAβ1L228F. As to the kind of experiment: Paclitaxel dose response of stably transfected cell lines with or without tetracycline (24-well, methylene blue). As to conditions: for Sensitivity to paclitaxel: cells transfected with mutant HAβ1-tubulin. The class given is cell-based, Chinese hamster. As to the method:
FIG. 7 depicts mutant HAβ1-tubulins confer paclitaxel resistance. Approximately 100 cells were seeded into replicate wells of 24-well dishes containing the indicated concentrations of paclitaxel (in ng/ml) with (“+”) or without (“−”) 1 μg/ml tetracycline. The cells were allowed to grow for 6–7 d and were then stained with methylene blue. The cell lines came from transfections with HAβ1 (A), HAβ1L215H (B), HAβ1L217R (C), or HAβ1L228F (D).
as §1
Measurement of drug resistance using a standard cloning efficiency assay was complicated by the observation that clones producing moderate to high levels of mutant HAβ1-tubulin grew poorly and produced many multinucleated cells. This problem was circumvented in 2 different ways. The first came from an observation that among the multinucleated cells, there were some cells that still looked normal. […]

Series [9] has as its system CHO cell line tTApuro 6.6 transfected with HAβ1L215H cDNA. Put plainly: Cloning efficiencies of HAβ1L215H transfected cells under selective conditions. Type of series: cell-based, Chinese hamster. As to conditions: for Number of colonies relative to G418+tetracycline, arbitrarily set at 100 / Cloning efficiency (colonies under selective conditions divided by colonies in αMEM+tetracycline): 2 mg/ml G418 or 0.2 μg/ml paclitaxel; for Cloning efficiency (colonies under selective conditions divided by colonies in αMEM+tetracycline): 6–10 d. As to the method: as §1
To rule out the possibility that we may have biased the results by examining specific clones of mutant HAβ1-tubulin expressing cells, we also tested the relative abilities of G418 and paclitaxel to select mutant HAβ1-tubulin positive cells from the total transfected cell populations. We reasoned that paclitaxel should be a powerful agent for selection of mutant HAβ1-tubulin expressing cells if, and only if, the mutant tubulin is capable of conferring resistance to the drug. To test this prediction, aliquots from an HAβ1L215H transfected cell population were grown under 6 different conditions: normal medium, medium containing 2 mg/ml G418, and medium containing 0.2 μg/ml paclitaxel, each in the presence or absence of 1 μg/ml tetracycline. Using the number of colonies obtained under nonselective conditions (normal medium containing tetracycline) as a control, the relative cloning efficiencies under the various selective conditions are summarized in Table II.
In Table II, CHO cell line tTApuro 6.6 was transfected with HAβ1L215H cDNA. At 24 h post-transfection, the cells were trypsinized and replated in normal medium (αMEM), medium containing 2 mg/ml G418, or medium containing 0.2 μg/ml paclitaxel, all either in the presence or absence of 1 μg/ml tetracycline. After 6–10 d (when visible colonies were seen) the cells were stained with methylene blue and the surviving colonies were counted. The cloning efficiency was calculated as the number of colonies obtained under selective conditions (G418 or paclitaxel) divided by the number of colonies obtained under nonselective conditions (αMEM+tetracycline). Numbers in parentheses are the number of colonies obtained relative to G418+tetracycline which was arbitrarily set at 100.

In series [10] the test system is Taxol resistant mutant Tax 5-6. As to the kind of experiment: Cross-resistance growth assay in 24 well dishes, Tax 5-6. The class given is cell-based, Chinese hamster. As to conditions: about 100 cells per well, grown 7 days.
Series [11] has as its system wild-type CHO cells. Put plainly: Lethality of paclitaxel to wild-type cells. The class given is cell-based, Chinese hamster. As to conditions: tetracycline-free medium. The protocol:
Measurement of drug resistance using a standard cloning efficiency assay was complicated by the observation that clones producing moderate to high levels of mutant HAβ1-tubulin grew poorly and produced many multinucleated cells. This problem was circumvented in 2 different ways. The first came from an observation that among the multinucleated cells, there were some cells that still looked normal. […] To select these cells, clones transfected with mutant HAβ1-tubulin were incubated in tetracycline-free medium containing a concentration of paclitaxel (0.2 μg/ml) that is lethal to wild-type cells. Multiple individual colonies were selected and tested for their dose response to paclitaxel; representative results are shown in FIG. 7. […] Thus HAβ1, HAβ1L215H, HAβ1L217R, and HAβ1L228F expressing cells were all tested for paclitaxel sensitivity in the presence or absence of tetracycline.

“Also recorded” adds a separate entry of the source. Read-outs that look alike come from different tables or passages of the source.

`CC[C@]1(O)C[C@@H]2CN(CCc3c([nH]c4ccccc34)[C@@](C(=O)OC)(c3cc4c(cc3OC)N(C)[C@H]3[C@@](O)(C(=O)OC)[C@H](OC(C)=O)[C@]5(CC)C=CCN6CC[C@]43[C@@H]65)C2)C1` [vinblastine]: in [1], the “Drug sensitivity of paclitaxel-selected mutant KB3 cells” value is on record as “hypersensitive”. The “Sensitivity of paclitaxel-resistant cells to the drug” value (“Sensitivity … to the drug” below) in [2] is on record as “increased sensitivity; also recorded: hypersensitive”.

As to `C/C(=C\c1csc(C)n1)[C@@H]1C[C@@H]2O[C@]2(C)CCC[C@H](C)[C@H](O)[C@@H](C)C(=O)C(C)(C)[C@@H](O)CC(=O)O1` [epothilone-B], in series [3] (grown 7 d, stained with methylene blue), the “Resistance of Tax-18 to cytotoxic effects compared to wild-type cells” value is “more resistant”. Besides, in series [3] (grown 7 d), the “Rescue of growth of drug-dependent Tax-18” value (“Rescue” for short) is on record as “rescued”.

As for `CC(=O)O[C@H]1C(=O)[C@@]2(C)[C@H]([C@H](OC(=O)c3ccccc3)[C@]3(O)C[C@H](OC(=O)[C@H](O)[C@@H](NC(=O)c4ccccc4)c4ccccc4)C(C)=C1C3(C)C)[C@]1(OC(C)=O)CO[C@@H]1C[C@@H]2O` [Paclitaxel, paclitaxel], the “Resistant or Dependent” value was “R” in [4] (cell line Tax 1–4, β-tubulin L215H); “R” in series [4] (cell line Tax 1–19, β-tubulin L215R); “R” in series [4] (cell line Tax 4–9, β-tubulin L215H); “R” in series [4] (cell line Tax 6–9, β-tubulin L217R). Further, the “Fold resistance to paclitaxel of cell lines selected in one step” value in series [4] (single-step selection with a single lethal dose of paclitaxel) is listed as 2-3 fold. In addition, the “Paclitaxel resistant cells obtained by direct selection” value in series [5] (HAβ1L217R and HAβ1L228F cDNAs) is “many paclitaxel resistant colonies”; in [5] (HAβ1 or HAβ1G38E cDNAs, repeated three times) it was “no paclitaxel resistant cells were obtained”. Besides, in series [6] (selected under non-inducing conditions (with tetracycline), assayed following induction), the “HA-positive cells in the selected population” value is listed as less than 5%. Besides, the “Rescue” value in series [3] (grown 7 d) is reported as “rescued”. Besides, the “Fold resistance versus unselected cells” value in series [7] is given as 24 fold. In addition, the “Drug sensitivity of paclitaxel-selected mutant KB3 cells” value in [1] is listed as “resistant”. Further, in [8] (HAβ1 (wild-type) transfected cells, with or without tetracycline), the “Sensitivity to paclitaxel, HAβ1 expressed versus not expressed” value is on record as “same sensitivity”. Moreover, the Sensitivity to paclitaxel entry is listed as “wild-type paclitaxel sensitivity” in series [8] (grown with tetracycline) and “clear resistance” in [8] (grown without tetracycline). Further, the “Selection under inducing conditions less efficient than G418 with tetracycline” value in series [9] (0.2 μg/ml paclitaxel, no tetracycline) is recorded as 5 times. Also, the “Fewer colonies under non-inducing conditions than under inducing conditions” value in series [9] (0.2 μg/ml paclitaxel, with tetracycline) is listed as 18 fold. Besides, the “Number of colonies relative to G418+tetracycline, arbitrarily set at 100” value is 1 in series [9] (+Tetracycline 1 μg/ml) and 18 in series [9] (−Tetracycline). Moreover, the “Cloning efficiency (colonies under selective conditions divided by colonies in αMEM+tetracycline)” value was 1.4 × 10^−5 in series [9] (+Tetracycline 1 μg/ml) and 2.3 × 10^−4 in [9] (−Tetracycline). Further, the “Resistance of Tax 5-6 compared to wild-type cells” value in series [10] is on record as “more resistant”. The “Concentration lethal to wild-type cells” value in series [11] was found to be 0.2 µg/mL.

As for `COc1cc2c(c(OC)c1OC)-c1ccc(OC)c(=O)cc1[C@@H](NC(C)=O)CC2` [colchicine], the “Sensitivity … to the drug” value in series [2] is listed as “increased sensitivity”.

For the compound `CC(=O)O[C@@]12CO[C@@H]1C[C@H](O)[C@@]1(C)C(=O)[C@H](O)C3=C(C)[C@@H](OC(=O)[C@H](O)[C@@H](NC(=O)OC(C)(C)C)c4ccccc4)C[C@@](O)([C@@H](OC(=O)c4ccccc4)[C@H]21)C3(C)C` [Taxotere], the “Resistance of Tax-18 to cytotoxic effects compared to wild-type cells” value in [3] is “resistant”. Besides, in series [3] (grown 7 d), the “Rescue” value was “rescued”. Moreover, in series [10], the “Resistance of Tax 5-6 compared to wild-type cells” value is listed as “more resistant”.

`CN[C@@H]1[C@@H](O)[C@@H](O[C@@H]2[C@@H](O)[C@H](O[C@H]3O[C@H]([C@@H](C)O)[C@@H](O)[C@H](O)[C@H]3N)[C@@H](N)C[C@H]2N)OC[C@]1(C)O` [G418]: the “HA-positive cells in the selected population” value in series [6] (selected under inducing conditions (no tetracycline)) is on record as less than 10%. For the same compound, in [9] (+Tetracycline 1 μg/ml), the “Number of colonies relative to G418+tetracycline, arbitrarily set at 100” value amounted to 100 and the “Cloning efficiency (colonies under selective conditions divided by colonies in αMEM+tetracycline)” value was 1.3 × 10^−3. For the same compound, in series [9] (G418 2 mg/ml), the “Lowering of selection efficiency under inducing conditions (no tetracycline) versus with tetracycline” value was “about 40%”. Moreover, in [9] (−Tetracycline), the “Number of colonies relative to G418+tetracycline, arbitrarily set at 100” value amounted to 60 and the “Cloning efficiency (colonies under selective conditions divided by colonies in αMEM+tetracycline)” value was 7.9 × 10^−4.

Consider `CC[C@]1(O)C[C@H]2CN(CCc3c([nH]c4ccccc34)[C@@](C(=O)OC)(c3cc4c(cc3OC)N(C=O)[C@H]3[C@@](O)(C(=O)OC)[C@H](OC(C)=O)[C@]5(CC)C=CCN6CC[C@]43[C@@H]65)C2)C1` [vincristine], for which the “Sensitivity … to the drug” value in [2] is given as “hypersensitive”.

Values taken from patent publication US7179588B1, “Assay for the detection of paclitaxel resistant cells in human tumors” (Board of Regents of the University of Texas System, priority 1999, dated 2007).
